Source: patent publication US10472347B2, “Aminopyrazine compounds with A2A antagonist properties” (Merck Sharp & Dohme Corp., priority 2014, dated 2019)

What follows are molecules tested against T1, human A2a receptor (Homo sapiens, UniProt P29274) (assay: A2a competition binding assay, Scintillation Proximity technology). Conditions: membranes from HEK293 cells expressing human A2a receptor; Ki by Cheng-Prusoff equation.
T1 construct: purchased Perkin-Elmer RBHA2AM400UA; host or cells: HEK293 cells (membranes)
T1 sequence (P29274 whole entry): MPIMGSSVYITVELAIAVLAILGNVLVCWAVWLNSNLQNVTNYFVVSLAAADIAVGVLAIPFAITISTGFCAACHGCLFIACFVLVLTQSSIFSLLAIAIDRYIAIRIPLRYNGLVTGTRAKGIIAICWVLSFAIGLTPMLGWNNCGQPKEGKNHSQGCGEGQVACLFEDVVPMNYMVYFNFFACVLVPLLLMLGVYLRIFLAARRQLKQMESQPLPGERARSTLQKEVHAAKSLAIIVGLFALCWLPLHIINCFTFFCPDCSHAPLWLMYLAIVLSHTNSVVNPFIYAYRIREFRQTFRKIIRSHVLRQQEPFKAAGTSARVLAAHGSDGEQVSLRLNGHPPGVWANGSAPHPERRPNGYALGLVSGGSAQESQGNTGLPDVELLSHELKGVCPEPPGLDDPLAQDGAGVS
Outline: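 Membranes from HEK293 cells expressing human A2a, adenosine deaminase-treated, incubated 1 h at room temperature with compound (3000 to 0.15 nM) and 0.5 nM tritiated pyrazolotriazolopyrimidine radioligand on WGA SPA beads in Ca/Mg-free PBS + 10 mM MgCl2. Non-specific binding with 1 μM CGS15943; Ki by Cheng-Prusoff.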

Row | SMILES | Ki [nM]
1 | Cc1nc(C(=O)N[C@@H]2c3ccccc3C[C@@H]2O)c(N)nc1-c1ncco1 [Ex-156, 3-amino-N-[(1R,2S)-2-hydroxy-2,3-dihydro-1H-inden-1-yl]-6-methyl-5-(1,3-oxazol-2-yl)pyrazine-2-carboxamide] | 68.9
2 | Nc1nc(-n2nccn2)c(Cl)nc1C(=O)NCc1ccccc1C(F)(F)F [Ex-269, 3-amino-6-chloro-5-(2H-1,2,3-triazol-2-yl)-N-[2-(trifluoromethyl)benzyl] pyrazine-2-carboxamide] | 4.3
3 | Cc1nc(C(=O)NC2CCc3ccccc3C2)c(N)nc1-c1ncco1 (single isomer, unassigned) [Ex-233A, 3-amino-6-methyl-5-(1,3-oxazol-2-yl)-N-(1,2,3,4-tetrahydronaphthalen-2-yl)pyrazine-2-carboxamide] | 1.15
4 | CCn1ccnc1CNC(=O)c1nc(C)c(-c2ncco2)nc1N [Ex-79, 3-amino-N-[(1-ethyl-1H-imidazol-2-yl)methyl]-6-methyl-5-(1,3-oxazol-2-yl)pyrazine-2-carboxamide] | 0.34
5 | Cc1nc(C(=O)NCc2nc(C(F)(F)F)cn2C)c(N)nc1-c1ncco1 [Ex-92, 3-amino-6-methyl-N-{[1-methyl-4-(trifluoromethyl)-1H-imidazol-2-yl]methyl}-5-(1,3-oxazol-2-yl)pyrazine-2-carboxamide] | 11.4
6 | Cc1nc(C(=O)NCc2nn(C)cc2C2CC2)c(N)nc1-c1ncco1 [Ex-170, 3-amino-N-[(4-cyclopropyl-1-methyl-1H-pyrazol-3-yl)methyl]-6-methyl-5-(1,3-oxazol-2-yl)pyrazine-2-carboxmamide] | 0.482
7 | Cc1c[nH]c(CNC(=O)c2nc(C)c(-c3ncco3)nc2N)n1 [Ex-14, 3-amino-6-methyl-N-[(4-methyl-1H-imidazol-2-yl)methyl]-5-(1,3-oxazol-2-yl)pyrazine-2-carboxamide] | 2.12
8 | C[C@@H](NC(=O)c1nc(Cl)c(-n2nccn2)nc1N)c1ccc2ccccc2n1 [Ex-287, 3-amino-6-chloro-N-[(1R)-1-quinolin-2-ylethyl]-5-(2H-1,2,3-triazol-2-yl)pyrazine-2-carboxamide] | 131
9 | Cc1cncnc1CNC(=O)c1nc(C)c(-c2ncco2)nc1N [Ex-175, 3-amino-6-methyl-N-[(5-methylpyrimidin-4-yl)methyl]-5-(1,3-oxazol-2-yl)pyrazine-2-carboxamide] | 6.31
10 | Nc1nc(-c2cnco2)c(Cl)nc1C(=O)NCc1cccc2cccnc12 [Ex-250, 3-amino-6-chloro-5-(1,3-oxazol-5-yl)-N-(quinolin-8-ylmethyl)pyrazine-2-carboxamide] | 2.4
11 | CCn1ncc2c(CNC(=O)c3nc(C)c(-c4ncco4)nc3N)cccc21 [Ex-242, 3-amino-N-[(1-ethyl-1H-indazol-4-yl)methyl]-6-methyl-5-(1,3-oxazol-2-yl)pyrazine-2-carboxamide] | 1.09
12 | Cc1cnn(-c2nc(N)c(C(=O)NCc3cccc4cc[nH]c34)nc2Cl)c1 [Ex-352, 3-amino-6-chloro-N-(1H-indol-7-ylmethyl)-5-(4-methyl-1H-pyrazol-1-yl)pyrazine-2-carboxamide] | 51.1
13 | Nc1nc(-n2nccn2)c(Cl)nc1C(=O)N[C@H](CO)c1ccccc1 [Ex-313, 3-amino-6-chloro-N-[(1S)-2-hydroxy-1-phenylethyl]-5-(2H-1,2,3-triazol-2-yl)pyrazine-2-carboxamide] | 22.8
14 | Nc1nc(-n2nccn2)c(Cl)nc1C(=O)NCCOc1ccccc1 [Ex-315, 3-amino-6-chloro-N-(2-phenoxyethyl)-5-(2H-1,2,3-triazol-2-yl)pyrazine-2-carboxamide] | 195
15 | Cc1nc(C(=O)NCc2cccc3c2ncn3CC(F)(F)F)c(N)nc1-c1ncco1 [Ex-181, 3-amino-6-methyl-5-(1,3-oxazol-2-yl)-N-{[1-(2,2,2-trifluoroethyl)-1H-benzimidazol-4-yl]methyl}pyrazine-2-carboxamide] | 1.3
16 | Cc1nc(C(=O)NCc2cncnc2)c(N)nc1-c1ncco1 [Ex-69, 3-amino-6-methyl-5-(1,3-oxazol-2-yl)-N-(pyrimidin-5-ylmethyl)pyrazine-2-carboxamide] | 56.5
17 | Cc1nc(C(=O)NC(C)(C)c2ccc(F)c(F)c2)c(N)nc1-c1cnco1 [Ex-260, 3-amino-N-[1-(3,4-difluorophenyl)-1-methylethyl]-6-methyl-5-(1,3-oxazol-5-yl)pyrazine-2-carboxamide] | 786
18 | Cc1nc(C(=O)NCc2nccc(C(F)(F)F)n2)c(N)nc1-c1ncco1 [Ex-108, 3-amino-6-methyl-5-(1,3-oxazol-2-yl)-N-{[4-(trifluoromethyl)pyrimidin-2-yl]methyl}pyrazine-2-carboxamide] | 6.58
19 | Cc1cc(C(F)(F)F)cnc1CNC(=O)c1nc(C)c(-c2ncco2)nc1N [Ex-183, 3-amino-6-methyl-N-{[3-methyl-5-(trifluoromethyl)pyridin-2-yl]methyl}-5-(1,3-oxazol-2-yl)pyrazine-2-carboxamide] | 6.72
20 | Cc1cccc(Cl)c1CNC(=O)c1nc(C)c(-c2cnco2)nc1N [Ex-256, 3-amino-N-(2-chloro-6-methylbenzyl)-6-methyl-5-(1,3-oxazol-5-yl)pyrazine-2-carboxamide] | 0.196
21 | Cc1nc(C(=O)NCc2ccc(Cl)cc2Cl)c(N)nc1-n1nccn1 [Ex-279, 3-amino-N-(2,4-dichlorobenzyl)-6-methyl-5-(2H-1,2,3-triazol-2-yl)pyrazine-2-carboxamide] | 59.3
22 | CCOc1cccnc1CNC(=O)c1nc(C)c(-c2ncco2)nc1N [Ex-167, 3-amino-N-[(3-ethoxypyridin-2-yl)methyl]-6-methyl-5-(1,3-oxazol-2-yl)pyrazine-2-carboxamide] | 0.158
23 | Cc1nc(C(=O)N[C@@H]2c3ccccc3C[C@H]2O)c(N)nc1-c1ncco1 [Ex-159, 3-amino-N-[(1R,2R)-2-hydroxy-2,3-dihydro-1H-inden-1-yl]-6-methyl-5-(1,3-oxazol-2-yl)pyrazine-2-carboxamide] | 1.2
24 | Cc1nc(C(=O)NCc2ccns2)c(N)nc1-c1ncco1 [Ex-40, 3-amino-N-(isothiazol-5-ylmethyl)-6-methyl-5-(1,3-oxazol-2-yl)pyrazine-2-carboxamide] | 14.6
25 | COCc1coc(-c2nc(N)c(C(=O)NCc3ncccc3C)nc2C)n1 [Ex-382, 3-amino-5-[4-(methoxymethyl)-1,3-oxazol-2-yl]-6-methyl-N-[(3-methylpyridin-2-yl)methyl]pyrazine-2-carboxamide] | 38.4
26 | Cc1nc(C(=O)NC2CCOc3ccccc32)c(N)nc1-c1ncco1 (stereo in doubt) [Ex-145, 3-amino-N-[(4R)-3,4-dihydro-2H-chromen-44-yl]-6-methyl-5-(1,3-oxazol-2-yl)pyrazine-2-carboxamide] | 4.22
27 | Cc1nc(C(=O)N2CCCc3ccccc32)c(N)nc1-c1ncco1 [Ex-24] | 78.5
28 | Cc1nc(C(=O)NCc2ncccc2F)c(N)nc1-c1ncco1 [Ex-20, 3-amino-N-[(3-fluoropyridin-2-yl)methyl]-6-methyl-5-(1,3-oxazol-2-yl)pyrazine-2-carboxamide] | 0.365
29 | Nc1nc(-n2nccn2)c(Cl)nc1C(=O)NCc1ncc[nH]1 [Ex-321, 3-amino-6-chloro-N-(1H-imidazol-2-ylmethyl)-5-(2H-1,2,3-triazol-2-yl)pyrazine-2-carboxamide] | 70.2
